We go through six compounds from ChEMBL document CHEMBL4354795, “Amino Acid Scanning at P5' within the Bowman-Birk Inhibitory Loop Reveals Specificity Trends for Diverse Serine Proteases” (J Med Chem, 2019).

pIC50, pKi: −log10 of the molar value. Bridge positions count the residues as written; N and C are the ends. Peptide text beside a SMILES is read from it.

Test [1] deals with T1, Suppressor of tumorigenicity 14 protein (Homo sapiens, UniProt Q9Y5Y6).
T1 sequence (Q9Y5Y6 whole entry): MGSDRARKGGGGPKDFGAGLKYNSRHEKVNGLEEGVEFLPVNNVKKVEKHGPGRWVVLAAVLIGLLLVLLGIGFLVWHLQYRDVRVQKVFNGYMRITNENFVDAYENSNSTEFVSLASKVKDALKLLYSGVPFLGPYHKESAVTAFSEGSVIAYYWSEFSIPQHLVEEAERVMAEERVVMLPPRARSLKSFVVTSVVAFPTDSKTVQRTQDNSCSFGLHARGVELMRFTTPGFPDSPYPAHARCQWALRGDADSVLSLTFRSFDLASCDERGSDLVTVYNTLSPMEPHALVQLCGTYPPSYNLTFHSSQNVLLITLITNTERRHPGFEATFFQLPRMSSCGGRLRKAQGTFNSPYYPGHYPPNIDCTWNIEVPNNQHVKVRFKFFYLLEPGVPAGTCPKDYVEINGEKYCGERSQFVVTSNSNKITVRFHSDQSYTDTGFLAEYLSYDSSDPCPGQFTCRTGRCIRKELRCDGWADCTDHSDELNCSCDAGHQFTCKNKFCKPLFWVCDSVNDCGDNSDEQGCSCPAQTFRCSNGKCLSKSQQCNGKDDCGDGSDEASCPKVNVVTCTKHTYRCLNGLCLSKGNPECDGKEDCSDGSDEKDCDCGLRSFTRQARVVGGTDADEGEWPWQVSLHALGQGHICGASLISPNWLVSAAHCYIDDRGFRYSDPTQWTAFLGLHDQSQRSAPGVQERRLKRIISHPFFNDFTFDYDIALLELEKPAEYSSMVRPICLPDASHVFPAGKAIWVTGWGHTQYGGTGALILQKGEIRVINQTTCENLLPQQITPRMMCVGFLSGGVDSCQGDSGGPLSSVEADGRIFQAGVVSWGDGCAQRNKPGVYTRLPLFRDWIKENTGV
The experiment in a line: Inhibition of recombinant human matriptase using Boc-QAR-MCA as susbtrate measured every 60 secs for 10 mins by fluorescence based assay.

Test [2] addresses T2, Kallikrein-5 (Homo sapiens, UniProt Q9Y337).
T2 sequence (Q9Y337 whole entry): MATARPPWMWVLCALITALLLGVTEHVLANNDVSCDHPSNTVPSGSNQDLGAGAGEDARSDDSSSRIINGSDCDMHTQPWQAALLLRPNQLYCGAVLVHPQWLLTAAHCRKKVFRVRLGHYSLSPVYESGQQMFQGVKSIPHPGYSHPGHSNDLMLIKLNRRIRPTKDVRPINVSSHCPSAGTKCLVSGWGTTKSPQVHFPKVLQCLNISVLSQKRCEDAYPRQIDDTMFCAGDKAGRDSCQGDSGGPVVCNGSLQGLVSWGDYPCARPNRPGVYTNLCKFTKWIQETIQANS
Description: Inhibition of recombinant human KLK5 expressed in expressed in Pichia pastoris X-33 cells using Boc-VPR-MCA as susbtrate measured every 60 secs for 10 mins by fluorescence based assay.

For test [3], the target named is T3, Kallikrein-7 (Homo sapiens, UniProt P49862). The experiment in a line: Inhibition of recombinant human KLK7 expressed in expressed in Pichia pastoris X-33 cells at 5 uM using KHLY-pNA as susbtrate measured every 15 secs for 10 mins by colorimetric analysis relative to control.
Target sequence in this assay (P49862 30-253 limits assumed): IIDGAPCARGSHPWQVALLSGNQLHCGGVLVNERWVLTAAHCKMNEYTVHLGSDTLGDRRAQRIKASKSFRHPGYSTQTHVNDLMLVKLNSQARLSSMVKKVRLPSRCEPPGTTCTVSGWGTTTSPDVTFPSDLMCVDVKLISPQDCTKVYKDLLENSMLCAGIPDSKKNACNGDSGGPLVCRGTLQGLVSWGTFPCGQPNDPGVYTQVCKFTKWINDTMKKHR
Test [4] concerns the target T3, Kallikrein-7. The experiment in a line: Inhibition of recombinant human KLK7 expressed in expressed in Pichia pastoris X-33 cells using KHLY-pNA as susbtrate measured every 15 secs for 10 mins by colorimetric analysis.
Target sequence in this assay (P49862 whole entry): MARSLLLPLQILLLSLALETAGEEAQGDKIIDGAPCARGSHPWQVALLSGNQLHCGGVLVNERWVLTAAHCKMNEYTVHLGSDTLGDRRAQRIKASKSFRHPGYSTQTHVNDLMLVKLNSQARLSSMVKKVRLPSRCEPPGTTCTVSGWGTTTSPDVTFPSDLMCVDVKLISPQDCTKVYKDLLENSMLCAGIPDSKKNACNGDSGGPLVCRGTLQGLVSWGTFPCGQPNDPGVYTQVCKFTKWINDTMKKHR
Test [5] can be described thus: Inhibition of human cationic trypsin using Boc-VPR-MCA as susbtrate measured every 60 secs for 10 mins by fluorescence based assay.
The target in test [6] is T3, Kallikrein-7. Description: Inhibition of recombinant human KLK7 expressed in expressed in Pichia pastoris X-33 cells at 10 uM using KHLY-pNA as susbtrate measured every 15 secs for 10 mins by colorimetric analysis relative to control.
Target sequence in this assay (P49862 30-253 limits assumed): as the sequence (P49862 30-253 limits assumed) above
The species named for test [7] is Homo sapiens. The experiment in a line: Inhibition of human cationic trypsin at 10 uM using Boc-VPR-MCA as susbtrate measured every 60 secs for 10 mins by fluorescence based assay relative to control.
The target in test [8] is T4, Suppressor of tumorigenicity 14 protein (Homo sapiens) (UniProt Q9Y5Y6).
T4 sequence (whole entry): T1 sequence (Q9Y5Y6 whole entry)
Description: Inhibition of recombinant human matriptase at 10 uM using Boc-QAR-MCA as susbtrate measured every 60 secs for 10 mins by fluorescence based assay relative to control.

Test [9] deals with T1, Suppressor of tumorigenicity 14 protein. Description: Inhibition of recombinant human matriptase catalytic domain using Boc-QARAMC as substrate preincubated for 1 hr followed by substrate addition.
Test [10] has as its target T3, Kallikrein-7. Description: Inhibition of recombinant KLK7 (unknown origin) expressed in Pichia pastoris X-33 cells using p-NA peptide as substrate measured every 10 secs for 300 secs by spectrophotometric analysis.
Target sequence in this assay (P49862 whole entry): as the sequence (P49862 whole entry) above
The target in test [11] is T2, Kallikrein-5. The experiment in a line: Inhibition of recombinant KLK5 (unknown origin) expressed in Pichia pastoris X-33 cells using pNA peptide as susbtrate measured every 10 secs for 300 secs by spectrometric analysis.

As usually defined, the pIC50 is the negative decadic logarithm of the IC50, by convention in mol/L. As usually defined, the pKi is −log10 of the Ki, conventionally taken in molar units. In general, inhibition refers to the share of the control response that was lost under treatment. Regarding `N=C(N)NCCC[C@@H]1NC(=O)[C@H](Cc2cnc[nH]2)NC(=O)[C@@H]2CSSC[C@H](NC(=O)[C@H](CCC(=O)O)NC(=O)[C@@H]3CCCN3C(=O)[C@@H]3CCCN3C(=O)[C@H](Cc3ccc(O)cc3)NC(=O)[C@H](CO)NC1=O)C(=O)N[C@@H](Cc1c[nH]c3ccccc13)C(=O)N1CCC[C@H]1C(=O)N[C@@H](CC(N)=O)C(=O)NCC(=O)N[C@@H](Cc1ccccc1)C(=O)N2`, the figures for the pIC50 in test [1], in test [4] and in test [5] were < 5.00, < 5.30 and < 5.00, respectively. For the same compound, the pKi in [2] is 8.62. The inhibition in test [3] was < 50%.
`N=C(N)NCCC[C@@H]1NC(=O)[C@H](Cc2cnc[nH]2)NC(=O)[C@@H]2CSSC[C@H](NC(=O)[C@H](CC(=O)O)NC(=O)[C@@H]3CCCN3C(=O)[C@@H]3CCCN3C(=O)[C@H](Cc3ccc(O)cc3)NC(=O)[C@H](CO)NC1=O)C(=O)N[C@@H](Cc1ccccc1)C(=O)N1CCC[C@H]1C(=O)N[C@@H](CC(N)=O)C(=O)NCC(=O)N[C@@H](Cc1ccccc1)C(=O)N2` (cyclo(CFPNGFCHRSYPPD); disulfide 1-7): the pKi in test [2] was 8.05.
With `N=C(N)NCCC[C@@H]1NC(=O)[C@H](Cc2cnc[nH]2)NC(=O)[C@@H]2CSSC[C@H](NC(=O)[C@H](CCC(=O)O)NC(=O)[C@@H]3CCCN3C(=O)[C@@H]3CCCN3C(=O)[C@H](Cc3ccc(O)cc3)NC(=O)[C@H](CO)NC1=O)C(=O)N[C@@H](Cc1ccccc1)C(=O)N1CCC[C@H]1C(=O)N[C@@H](CC(N)=O)C(=O)NCC(=O)N[C@@H](Cc1ccccc1)C(=O)N2` (cyclo(CFPNGFCHRSYPPE); disulfide 1-7), the pIC50 in test [1], in test [4] and in [5] was < 5.00 each time. Further, in test [2], the pKi is 8.43. Also, the inhibition in test [6], in [7] and in [8] was < 50% throughout.
As to `CC[C@H](C)[C@@H]1NC(=O)[C@@H]2CCCN2C(=O)[C@@H]2CCCN2C(=O)[C@H]([C@@H](C)CC)NC(=O)[C@H](CO)NC(=O)[C@H](CCCCN)NC(=O)[C@H]([C@@H](C)O)NC(=O)[C@@H]2CSSC[C@H](NC1=O)C(=O)N[C@@H](Cc1ccccc1)C(=O)N1CCC[C@H]1C(=O)N[C@@H](CC(N)=O)C(=O)NCC(=O)N[C@@H](CCCNC(=N)N)C(=O)N2` (cyclo(CFPNGRCTKSIPPI); disulfide 1-7), the pKi in test [9] is 6.70; in [11], 6.84. Also, the pIC50 in test [10] is < 5.00.
For `N=C(N)NCCC[C@@H]1NC(=O)[C@H](CC(N)=O)NC(=O)[C@@H]2CSSC[C@H](NC(=O)[C@H](CC(=O)O)NC(=O)[C@@H]3CCCN3C(=O)[C@@H]3CCCN3C(=O)[C@H](Cc3ccc(O)cc3)NC(=O)[C@H](CO)NC1=O)C(=O)N[C@@H](Cc1ccccc1)C(=O)N1CCC[C@H]1C(=O)N[C@@H](CC(N)=O)C(=O)NCC(=O)N[C@@H](Cc1ccc(O)cc1)C(=O)N2` (cyclo(CFPNGYCNRSYPPD); disulfide 1-7), in [2], the pKi is 9.14.
As for `N=C(N)NCCC[C@@H]1NC(=O)[C@H](CC(N)=O)NC(=O)[C@@H]2CSSC[C@H](NC(=O)[C@H](CCC(=O)O)NC(=O)[C@@H]3CCCN3C(=O)[C@@H]3CCCN3C(=O)[C@H](Cc3ccc(O)cc3)NC(=O)[C@H](CO)NC1=O)C(=O)N[C@@H](Cc1ccccc1)C(=O)N1CCC[C@H]1C(=O)N[C@@H](CC(N)=O)C(=O)NCC(=O)N[C@@H](Cc1ccc(O)cc1)C(=O)N2` (cyclo(CFPNGYCNRSYPPE); disulfide 1-7), the pIC50 in [1] was < 5.00; in test [4], < 5.00; in test [5], < 5.70. The pKi in test [2] is 9.47.
